Among the data in US4168206A, “Impregnated disk method for testing antifungal susceptibility” (Philadelphia College of Osteopathic Medicine, priority 1977, dated 1979) are MIC and MFC values, retold here.

SMILES strings stand for the structures. Converted amounts (≈) assume the structure as drawn. Where two headings read alike, the source gives them in different places.

Type in all cases: cell-based
The subject of test [1] is Candida albicans. The test is described as follows: MIC by impregnated disk method, Candida albicans. To be noted: Candida albicans. The protocol: (§1) Stock solutions of the antifungal agents to be tested are preferably prepared by diluting the antifungal agents in the proper nutrient medium. It is presently preferred to prepare dilutions in 10 ml of the proper medium to give the following final concentrations when applied to the disks (all quantities in micrograms per milliliter): 0.05, 0.08, 0.09, 0.1; 0.1 increment increases to 0.9, 1.0; 0.5 increment increases to 10.0; and 12.0, 14.0, 20.0, 25.0 and 50.0. Disks have been prepared by placing 0.05 ml of the above dilutions of antifungal agent containing medium on 6.5 mm diameter disks in 0.01 or 0.02 ml increments. The impregnated disks are then allowed to dry at a temperature preferably below about 10° C. […] The disks may also be dried by a lyophilization or freeze drying process.
(§2) To perform the tests in accordance with the present inventions, disks impregnated with various concentrations of antifungal agent and nutrient medium and a control disk impregnated only with the corresponding nutrient medium are placed on the fungus to be tested which has been applied to the non-nutrient medium. The disks are the inoculated non-nutrient medium are then incubated at a suitable temperature for a sufficient time to promote growth of the fungus. Any temperature is suitable if it will promote growth of the fungus without adversely affecting the fungus or the activity of the antifungal agent or agents tested. The time of incubation can be determined by observing the extent of growth around the control disk. […] The zones of growth or inhibition around the disks were read at 6, 12, 24, 36 and 48 hours after the disks were placed on the tested fungus.
(§3) The minimum inhibitory concentration is defined as the lowest concentration of antifungal agent which inhibits visible growth. The disks containing concentrations of antifungal agents below the minimum inhibitory concentration show circumscribed growth of the fungus around the disk. Disks containing concentrations of antifungal agent at or above the minimum inhibitory concentration show no circumscribed growth.
(§4) Clinical isolates of various fungi listed in Table 1 were obtained from different patients diagnosed as having fungal infections. The fungal inocula were prepared by using a 24-48 hour cultures grown in yeast nitrogen base containing 1% glucose and 0.15% asparagine. After centrifuging, the supernatant was removed, the sedimented cells were washed twice with sterile distilled water and a cell suspension was adjusted to 80% transmission at 520 nm using a Beckman DB-GT grating spectrophotometer.
(§5) Sterile liquified 2% purified agar was placed in petri dishes and allowed to harden. The surface of the agar was inoculated with a sterile cotton swab saturated with a suspension of an organism. The uniformly swabbed plates were then allowed to dry.
(§6) Disks were prepared using the dilutions described above for amphotericin B, nystatin and 5-fluorocytosine. 0.05 ml of the dilutions of each antifungal agent diluted with the appropriate nutrient medium were pipetted on 6.5 mm diameter disks. The disks were dried at 4° C. after each application. Control disks were also prepared.
(§7) Several test disks and a control disk were placed in each petri dish containing the inoculated agar. The disks and petri dishes were then incubated at 29° C. and the minimum inhibitory concentration of the various concentrations of the antifungal agents were read at 6, 12, 24, 36 and 48 hours.
(§8) In 10 duplicate runs with each strain tested, the variation in minimum inhibitory concentration averaged ±0.05 μg/ml.

For the next test, the system named is C. parapsilosis. In words: MIC by impregnated disk method, Candida parapsilosis. The note with it: Lodderomyces parapsilosis. The protocol:
as §1, §2, §3, §4, §5, §6, §7, §8

Test [2] deals with C. tropicalis. The test is described as follows: MIC by impregnated disk method, Candida tropicalis. To be noted: Candida tropicalis, read-out: Minimum Inhibitory Concentration, Disk. As for the experimental part: as §1, §2
(§9) The minimum inhibitory concentration is defined as the lowest concentration of antifungal agent which inhibits visible growth. […]
(§10) Several test disks and a control disk were placed in each petri dish containing the inoculated agar. The disks and petri dishes were then incubated at 29° C. and the minimum inhibitory concentration of the various concentrations of the antifungal agents were read at 6, 12, 24, 36 and 48 hours. […]

For test [3], the system named is C. tropicalis. The test is described as follows: MIC by broth dilution method, Candida tropicalis. To be noted: Candida tropicalis, read-out: Minimum Inhibitory Concentration, Broth.
From the text: (§11) The preparation of the nutrient media, the antifungal agents and the fungi to be tested in the present invention are similar to those reported in S. Shadomy and A. Espinel-Ingroff, "Susceptibility Testing Of Antifungal Agents", Ch. 63, pp. 569-574 in E. H. Lennett, E. H. Spaulding, and J. P. Truant, Eds., Manual Of Clinical Microbiology, 2nd Ed., American Society for Microbiology, Washington, D.C. (1974). This publication describes the susceptibility testing of antifungal agents, namely, amphotericin B, nystatin and 5-fluoro-cytosine (5-FC), by the "broth dilution method" and the "semisolid agar dilution method". At pages 570-571, it is stated:
as §8
(§12) *Broth dilution method conducted in accordance with S. Shadomy and E.
(§13) Espinel-Ingroff, "Susceptibility Testing of Antifungal Agents", Ch. 63,
(§14) pp. 569-574 in E. H. Spaulding and J. P. Truant, Eds., Manual Of Clinical
(§15) Microbiology, 2nd Ed., American Society for Microbiology, Washington, […]

Another test deals with Cryptococcus neoformans. The test is described as follows: MIC by impregnated disk method, Cryptococcus neoformans. The note with it: Cryptococcus neoformans. As for the experimental part:
as §1, §2, §3, §4, §5, §6, §7, §8

In another test the test system is Geotrichum candidum. The test is described as follows: MIC by broth dilution method, Geotrichum candidum. The note with it: read-out: Minimum Inhibitory Concentration, Broth.
From the text: as §11, §8, §12, §13, §14, §15
A general note: In broth dilution the organism is exposed to a series of concentrations in liquid medium.

The subject of test [4] is Torulopsis glabrata. The test is described as follows: MIC by impregnated disk method, Torulopsis glabrata. The note with it: Nakaseomyces glabratus, read-out: Minimum Inhibitory Concentration, Disk. As for the experimental part:
as §1, §2, §9, §10

In test [5] the test system is Torulopsis glabrata. In words: MIC by broth dilution method, Torulopsis glabrata. To be noted: Nakaseomyces glabratus, read-out: Minimum Inhibitory Concentration, Broth.
From the text: as §11, §8, §12, §13, §14, §15

Test [6] deals with Candida albicans. The test is described as follows: Minimum fungicidal concentration by disk method. The note with it: 48 h. The protocol: Minimum fungicidal concentration is defined as the lowest concentration of antifungal agent from which subcultures were negative or where no overgrowth occurs. In tests of Candida albicans, the minimum inhibitory concentration can usually be determined at about 24 hours. Minimum fungicidal concentration may be determined by incubation for an additional 24 hours. At concentrations below the minimum fungicidal concentration, overgrowth occurs by 48 hours.
The minimal fungicidal concentrations of amphotericin B for the first 6 isolates of Candida albicans listed in Table 1 were determined by incubating the disks and organisms for 48 hours. At concentrations below the minimum fungicidal concentration, overgrowth occurred by 48 hours.

Turning to `C[C@@H]1[C@H](O)[C@@H](C)/C=C/C=C/C=C/C=C/C=C/C=C/C=C/[C@H](O[C@@H]2O[C@H](C)[C@@H](O)[C@H](N)[C@@H]2O)C[C@@H]2O[C@](O)(C[C@@H](O)C[C@@H](O)[C@H](O)CC[C@@H](O)C[C@@H](O)CC(=O)O[C@H]1C)C[C@H](O)[C@H]2C(=O)O` [Amphotericin B, amphotericin B], the MIC in the test on Candida albicans [1] (isolate 1, read-out: Minimum Inhibitory Concentration, Disk) was found to be 0.3 µg/mL (≈ 0.325 µM); in the test with Candida albicans [1] (isolate 2, read-out: Minimum Inhibitory Concentration, Disk), 0.6 µg/mL (≈ 0.649 µM); with Candida albicans [1] (isolate 3, read-out: Minimum Inhibitory Concentration, Disk), 0.08 µg/mL (≈ 0.0866 µM); in the test on Candida albicans [1] (isolate 4, read-out: Minimum Inhibitory Concentration, Disk), 0.6 µg/mL (≈ 0.649 µM); in the test with Candida albicans [1] (isolate 5, read-out: Minimum Inhibitory Concentration, Disk), 0.9 µg/mL (≈ 0.974 µM); in the test with Candida albicans [1] (isolate 6, read-out: Minimum Inhibitory Concentration, Disk), 1 µg/mL (≈ 1.08 µM). The MIC with C. parapsilosis (read-out: Minimum Inhibitory Concentration, Disk, C. parapsilosis isolate 1) came to 0.5 µg/mL (≈ 0.541 µM); in the test on C. parapsilosis (read-out: Minimum Inhibitory Concentration, Disk, C. parapsilosis isolate 2) it was 0.6 µg/mL (≈ 0.649 µM); with C. tropicalis [2], 0.7 µg/mL (≈ 0.758 µM); with C. tropicalis [3], 0.8 µg/mL (≈ 0.866 µM); with Cryptococcus neoformans (read-out: Minimum Inhibitory Concentration, Disk, C. neoformans isolate 2) it was 0.2 µg/mL (≈ 0.216 µM); with Cryptococcus neoformans (read-out: Minimum Inhibitory Concentration, Disk, C. neoformans isolate 3) it was 0.5 µg/mL (≈ 0.541 µM). The MIC with Cryptococcus neoformans (read-out: Minimum Inhibitory Concentration, Disk, Cryptococcus neoformans isolate 1) stood at 0.4 µg/mL (≈ 0.433 µM); with Geotrichum candidum, 0.9 µg/mL (≈ 0.974 µM); with Torulopsis glabrata [4] it was 0.2 µg/mL (≈ 0.216 µM); with Torulopsis glabrata [5], 0.3 µg/mL (≈ 0.325 µM). Further, the MFC worked out at 0.9 µg/mL (≈ 0.974 µM) in the test with Candida albicans [6] (isolate 3, read-out: Minimum Fungicidal Concentration, Disk); 0.9 µg/mL (≈ 0.974 µM) in the test on Candida albicans [6] (isolate 4, read-out: Minimum Fungicidal Concentration, Disk); 5 µg/mL (≈ 5.41 µM) in the test with Candida albicans [6] (isolate 6, read-out: Minimum Fungicidal Concentration, Disk); 1.4 µg/mL (≈ 1.52 µM) with Candida albicans [6] (read-out: Minimum Fungicidal Concentration, Disk, isolate 1); 1.6 µg/mL (≈ 1.73 µM) with Candida albicans [6] (read-out: Minimum Fungicidal Concentration, Disk, isolate 2); 1.8 µg/mL (≈ 1.95 µM) in the test on Candida albicans [6] (read-out: Minimum Fungicidal Concentration, Disk, isolate 5).
